# Results published in patent US11932658B2 (BRISTOL-MYERS SQUIBB COMPANY, priority 2016, dated 2024).
# Target: T1, PAR4 (Homo sapiens, UniProt Q96RI0)
# T1 construct: expressed in transfected cells; host or cells: HEK293 PAR4 Clone 1.2A (BMS Arctic ID 383940)
# T1 sequence (Q96RI0 18-385): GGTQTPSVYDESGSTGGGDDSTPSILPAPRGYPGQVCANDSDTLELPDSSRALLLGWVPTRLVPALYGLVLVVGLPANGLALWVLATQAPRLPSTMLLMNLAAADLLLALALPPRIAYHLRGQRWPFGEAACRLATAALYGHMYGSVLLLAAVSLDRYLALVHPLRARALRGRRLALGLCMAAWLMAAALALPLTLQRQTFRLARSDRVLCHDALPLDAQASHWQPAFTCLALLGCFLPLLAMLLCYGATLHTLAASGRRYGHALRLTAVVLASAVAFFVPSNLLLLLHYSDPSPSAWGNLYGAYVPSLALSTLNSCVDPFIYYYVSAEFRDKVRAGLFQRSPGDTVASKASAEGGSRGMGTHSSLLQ
# Assay: PAR4 FLIPR assay (antagonism of agonist peptide-induced calcium mobilization)
# Type: cell-based
# Outline: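 Antagonism was taken as block of calcium mobilization evoked by the agonist peptide H-Ala-Phe(4-F)-Pro-Gly-Trp-Leu-Val-Lys-Asn-[…]-NH2, added after 30 min room-temperature compound preincubation in dye-loaded PAR4-transfected HEK293 cells (endogenous PAR1). Fluorescence was read on FDSS, with compound addition alone used as the agonist counter-screen; values come from 11-point concentration-response curves.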
row,IC50,Structure (SMILES)
1,4.1 nM,"COc1cnc2c(-c3nc4ccc5c(c4s3)C[C@@H](CNC(=O)OCC3CCCCO3)O5)cc(C)cc2n1 (stereo partly drawn) [Example 235, (Tetrahydro-2H-pyran-2-yl)methyl (((S)-2-(2-methoxy-7-methylquinoxalin-5-yl)-7,8-dihydrobenzofuro[5,4-d]thiazol-7-yl)methyl)carbamate]"
2,2.7 nM,"COc1cnc2c(-c3nc4ccc5c(c4s3)C[C@@H](CNC(=O)O[C@H]3CCOC3)O5)cc(C)cc2n1 [Example 236, (S)-tetrahydrofuran-3-yl (((S)-2-(2-methoxy-7-methylquinoxalin-5-yl)-7,8-dihydrobenzofuro[5,4-d]thiazol-7-yl)methyl)carbamate]"
3,40 nM,"COc1cnc2c(-c3nc4cc(F)c5c(c4s3)C[C@@](C)(COP(=O)(O)O)O5)cc(C)cc2n1 [Example 237, (S)-(5-fluoro-2-(2-methoxy-7-methylquinoxalin-5-yl)-7-methyl-7,8-dihydrobenzofuro[5,4-d]thiazol-7-yl)methyl dihydrogen phosphate]"
4,1.3 nM,"COc1cnc2c(-c3nc4cc(F)c5c(c4s3)[C@H](C)[C@@H](CO)O5)cc(C)cc2n1 [Example 238, ((7S,8S)-5-fluoro-2-(2-methoxy-7-methylquinoxalin-5-yl)-8-methyl-7,8-dihydrobenzofuro[5,4-d]thiazol-7-yl)methanol]"
5,49 nM,"COc1cnc2c(-c3nc4cc(F)c5c(c4s3)[C@@H](C)[C@H](CO)O5)cc(C)cc2n1 [Example 239, ((7R,8R)-5-fluoro-2-(2-methoxy-7-methylquinoxalin-5-yl)-8-methyl-7,8-dihydrobenzofuro[5,4-d]thiazol-7-yl)methanol]"
6,32 nM,"COC(=O)NC[C@]1(C)Cc2c(c(F)cc3nc(-c4cc(C)cc5nc(OC)cnc45)sc23)O1 [Example 240, (S)-methyl ((5-fluoro-2-(2-methoxy-7-methylquinoxalin-5-yl)-7-methyl-7,8-dihydrobenzofuro[5,4-d]thiazol-7-yl)methyl)carbamate]"
7,8.6 nM,"COc1cnc2c(-c3nc4cc(F)c5c(c4s3)C[C@@](C)(CNC(=O)OCC(C)C)O5)cc(C)cc2n1 [Example 241, (S)-isobutyl ((5-fluoro-2-(2-methoxy-7-methylquinoxalin-5-yl)-7-methyl-7,8-dihydrobenzofuro[5,4-d]thiazol-7-yl)methyl)carbamate]"
8,9.3 nM,"COc1cnc2c(-c3nc4cc(F)c5c(c4s3)C[C@@](C)(CNC(=O)OC(C)(C)C)O5)cc(C)cc2n1 [Example 242, (S)-tert-butyl ((5-fluoro-2-(2-methoxy-7-methylquinoxalin-5-yl)-7-methyl-7,8-dihydrobenzofuro[5,4-d]thiazol-7-yl)methyl)carbamate]"
9,100 nM,"COc1cnc2c(-c3nc4ccc5c(c4s3)C[C@@H](CNC(=O)OC(C)(C)C)O5)cc(C)cc2n1 [Example 244, (S)-tert-butyl ((2-(2-methoxy-7-methylquinoxalin-5-yl)-7,8-dihydrobenzofuro[5,4-d]thiazol-7-yl)methyl)carbamate]"

# More lines, now with the values behind:
row,Structure (SMILES),IC50
1,"COc1ccc(OC(=O)NC[C@@H]2Cc3c(c(F)cc4nc(-c5cc(C)cc6nc(OC)cnc56)sc34)O2)cc1 [Example 216, (S)-4-methoxyphenyl ((5-fluoro-2-(2-methoxy-7-methylquinoxalin-5-yl)-7,8-dihydrobenzofuro[5,4-d]thiazol-7-yl)methyl)carbamate]",2.1 nM
2,"COc1cnc2c(-c3nc4cc(F)c5c(c4s3)C[C@H](CNC(=O)Cc3ccccc3)O5)cc(C)cc2n1 [Example 217, (R)-N-((5-fluoro-2-(2-methoxy-7-methylquinoxalin-5-yl)-7,8-dihydrobenzofuro[5,4-d]thiazol-7-yl)methyl)-2-phenylacetamide]",120 nM
3,"COC(=O)NC[C@H]1Cc2c(c(F)cc3nc(-c4cc(C)cc5nc(OC)cnc45)sc23)O1 [Example 218, (R)-methyl ((5-fluoro-2-(2-methoxy-7-methylquinoxalin-5-yl)-7,8-dihydrobenzofuro[5,4-d]thiazol-7-yl)methyl)carbamate]",15 nM
4,"COc1cnc2c(-c3nc4cc(F)c5c(c4s3)C[C@H](CNC(C)=O)O5)cc(C)cc2n1 [Example 219, (R)-N-((5-fluoro-2-(2-methoxy-7-methylquinoxalin-5-yl)-7,8-dihydrobenzofuro[5,4-d]thiazol-7-yl)methyl)acetamide]",180 nM
5,"COc1cnc2c(-c3nc4cc(F)c5c(c4s3)C[C@H](CNC(=O)Oc3ccccc3)O5)cc(C)cc2n1 [Example 220, (R)-phenyl ((5-fluoro-2-(2-methoxy-7-methylquinoxalin-5-yl)-7,8-dihydrobenzofuro[5,4-d]thiazol-7-yl)methyl)carbamate]",38 nM
6,"COc1cnc2c(-c3nc4cc(F)c5c(c4s3)C[C@H](CNC(=O)OCc3ccccc3)O5)cc(C)cc2n1 [Example 221, (R)-benzyl ((5-fluoro-2-(2-methoxy-7-methylquinoxalin-5-yl)-7,8-dihydrobenzofuro[5,4-d]thiazol-7-yl)methyl)carbamate]",5.9 nM
7,"COc1cnc2c(-c3nc4cc(F)c5c(c4s3)C[C@H](CNC(=O)C(F)(F)F)O5)cc(C)cc2n1 [Example 222, (R)-2,2,2-trifluoro-N-((5-fluoro-2-(2-methoxy-7-methylquinoxalin-5-yl)-7,8-dihydrobenzofuro[5,4-d]thiazol-7-yl)methyl)acetamide]",> 500 nM
8,"COc1cnc2c(-c3nc4cc(F)c5c(c4s3)C[C@H](CNC(=O)OC(C)(C)C)O5)cc(C)cc2n1 [Example 223, (R)-tert-butyl ((5-fluoro-2-(2-methoxy-7-methylquinoxalin-5-yl)-7,8-dihydrobenzofuro[5,4-d]thiazol-7-yl)methyl)carbamate]",5.8 nM
9,"COc1cnc2c(-c3nc4ccc5c(c4s3)C[C@@H](CNC(=O)OCC(C)C)O5)cc(C)cc2n1 [Example 224, (S)-isobutyl ((2-(2-methoxy-7-methylquinoxalin-5-yl)-7,8-dihydrobenzofuro [5,4-d]thiazol-7-yl)methyl)carbamate]",4 nM
10,"COc1cnc2c(-c3nc4ccc5c(c4s3)C[C@@H](CNC(=O)OCc3ccccc3)O5)cc(C)cc2n1 [Example 225, (S)-benzyl ((2-(2-methoxy-7-methylquinoxalin-5-yl)-7,8-dihydrobenzofuro[5,4-d]thiazol-7-yl)methy 1)carbamate]",0.6 nM
11,"COC(=O)NC[C@@H]1Cc2c(ccc3nc(-c4cc(C)cc5nc(OC)cnc45)sc23)O1 [Example 226, (S)-methyl ((2-(2-methoxy-7-methylquinoxalin-5-yl)-7,8-dihydrobenzofuro[5,4-d]thiazol-7-yl)methy 1)carbamate]",1.4 nM
12,"COc1cnc2c(-c3nc4ccc5c(c4s3)C[C@@H](CNC(=O)OC3CCOCC3)O5)cc(C)cc2n1 [Example 227, (S)-tetrahydro-2H-pyran-4-yl ((2-(2-methoxy-7-methylquinoxalin-5-yl)-7,8-dihydrobenzofuro[5,4-d]thiazol-7-yl)methy 1)carbamate]",1.3 nM
13,"COc1cnc2c(-c3nc4ccc5c(c4s3)C[C@@H](CNS(C)(=O)=O)O5)cc(C)cc2n1 [Example 228, (S)-N-((2-(2-methoxy-7-methylquinoxalin-5-yl)-7,8-dihydrobenzofuro[5,4-d]thiazol-7-yl)methyl)methanesulfonamide]",190 nM
14,"COc1cnc2c(-c3nc4ccc5c(c4s3)C[C@@H](CNC(=O)OCC3CCOC3)O5)cc(C)cc2n1 (stereo partly drawn) [Example 229, (Tetrahydrofuran-3-yl)methyl (((S)-2-(2-methoxy-7-methylquinoxalin-5-yl)-7,8-dihydrobenzofuro[5,4-d]thiazol-7-yl)methyl)carbamate]",20 nM
15,"COc1cnc2c(-c3nc4ccc5c(c4s3)C[C@@H](CNC(=O)O[C@@H]3CCOC3)O5)cc(C)cc2n1 [Example 230, (R)-tetrahydrofuran-3-yl (((S)-2-(2-methoxy-7-methylquinoxalin-5-yl)-7,8-dihydrobenzofuro[5,4-d]thiazol-7-yl)methyl)carbamate]",6.4 nM
16,"COc1cnc2c(-c3nc4ccc5c(c4s3)C[C@@H](CNC(=O)OCc3cccc(C#N)c3)O5)cc(C)cc2n1 [Example 231, (S)-3-cyanobenzyl ((2-(2-methoxy-7-methylquinoxalin-5-yl)-7,8-dihydrobenzofuro[5,4-d]thiazol-7-yl)methy 1)carbamate]",5.8 nM
17,"COc1cnc2c(-c3nc4ccc5c(c4s3)C[C@@H](CNC(=O)OCc3cccnc3)O5)cc(C)cc2n1 [Example 232, (S)-pyridin-3-ylmethyl ((2-(2-methoxy-7-methylquinoxalin-5-yl)-7,8-dihydrobenzofuro[5,4-d]thiazol-7-yl)methy 1)carbamate]",3.3 nM
18,"COc1cnc2c(-c3nc4ccc5c(c4s3)C[C@@H](CNC(=O)OCc3ccncc3)O5)cc(C)cc2n1 [Example 233, (S)-pyridin-4-ylmethyl ((2-(2-methoxy-7-methylquinoxalin-5-yl)-7,8-dihydrobenzofuro[5,4-d]thiazol-7-yl)methy 1)carbamate]",6.6 nM
19,"COc1cnc2c(-c3nc4ccc5c(c4s3)C[C@@H](CNC(=O)OC3CCCOC3)O5)cc(C)cc2n1 (stereo partly drawn) [Example 234, Tetrahydro-2H-pyran-3-yl (((S)-2-(2-methoxy-7-methylquinoxalin-5-yl)-7,8-dihydrobenzofuro[5,4-d]thiazol-7-yl)methyl)carbamate]",4.3 nM
